Experimental data published in US4250162A, “Protein binding method” (priority 1979, dated 1981).
Several values for one entry are separate records, joined by “and”; a condition that tells them apart may be missing. Equal values may be shown once.

What was measured:
[1] = test system: thyroxine rabbit antiserum; assay: Effect of organic solvents on antiserum-coated polypropylene tubes: residual binding of radioiodinated tracer, thyroxine antiserum; details: tracer bound after solvent 3 hours at 50° C., tracer 45 minutes at 37° C.
Method: (§1) 1 ml of petroleum ether, benzene, ether, ethyl acetate or acetone was added to a selection of cortisol, thyroxine, diphenylhydantoin and estriol rabbit antiserum-coated polypropylene tubes. The solvent level in the tubes was sufficient to immerse the antiserum coated region at the bottom of the tubes. The solvents were equilibrated with atmospheric water vapor. The solvent-containing tubes were then incubated for 3 hours at 50° C. The excess solvent was poured off and the tubes were left overnight to allow the residual solvent to evaporate. Three sets of control tubes were prepared. One set was treated with water in the same manner as the organic solvents, while another set was heated in air for the same period as the liquid-treated tubes. A final set of tubes served as an untreated control. The residual capacity of the antiserum-coated tubes to bind the respective radioiodinated tracers was determined by adding a 1 ml solution of the tracer containing 0.01 μCi to each tube containing an antiserum coating specific for that tracer, incubating for 45 minutes at 37° C., carefully decanting the tracer solution and counting the radioactivity bound to the tubes. The percent binding was calculated by dividing the bound counts by the total counts added.

[2] = test system: cortisol rabbit antiserum; assay: Effect of organic solvents on antiserum-coated polypropylene tubes: residual binding of radioiodinated tracer, cortisol antiserum; details: tracer bound after solvent 3 hours at 50° C., tracer 45 minutes at 37° C.
Method: as §1

[3] = test system: diphenylhydantoin rabbit antiserum; assay: Effect of organic solvents on antiserum-coated polypropylene tubes: residual binding of radioiodinated tracer, diphenylhydantoin antiserum; details: tracer bound after solvent 3 hours at 50° C., tracer 45 minutes at 37° C.
Method: as §1

antitestosterone = assay: Standard curve for testosterone in antitestosterone-coated polypropylene tubes; format: binding; details: serum standards 0.1, 0.3, 1, 3 and 10 ng testosterone/ml, ethyl acetate extraction; 45 minutes at 37° C.; semi-logarithmic plot
Method: 0.6 ml of serum standards containing 0.1, 0.3, 1, 3 and 10 ng testosterone/ml were mixed with 3 ml of ethyl acetate. The phases were allowed to separate and 0.5 of the ethyl acetate layer was added to each of duplicate antitestosterone-coated tubes. After the ethyl acetate was evaporated under a stream of nitrogen, 1 ml of phosphate buffered saline at pH 7.4 was added to each tube and the testosterone residue dissolved. Five minutes later 0.1 ml of ^125 I-labeled testosterone tracer was added to each tube. After incubation for 45 minutes at 37° C., the solution was aspirated from each tube and the bound radioactivity determined in conventional fashion. […] The plot was satisfactory for use in the assay of testosterone unknowns.

estriol rabbit antiserum = assay: Effect of organic solvents on antiserum-coated polypropylene tubes: residual binding of radioiodinated tracer, estriol antiserum; details: tracer bound after solvent 3 hours at 50° C., tracer 45 minutes at 37° C.
Method: as §1

[4] = test system: rabbit anti-cortisol serum; assay: Competitive radioimmunoassay of cortisol in antiserum-coated plastic tubes (125I-cortisol tracer); format: binding
Method: Urine samples are prepared for extraction by adding 200 microliters of a well mixed 24-hour urine sample to each of two disposable glass test tubes, one marked "S" and the other "E". The "E" tube is to be used to determine the efficiency of cortisol extraction from the sample. 10 microliters of cortisol standard serum (60 μg%) are mixed with the contents of the "E" tube, and 1.0 ml of chilled methylene chloride is then added to all tubes. The tubes are capped and their contents agitated to aid in the extraction of cortisol into the methylene chloride layer. After separation of the organic phase, duplicate 100 microliter aliquots of the bottom (methylene chloride) layer of each "S" and "E" tube are carefully removed and added to corresponding plastic test tubes coated with rabbit anti-cortisol serum on their lower inner surfaces, also correspondingly labeled "S" and "E". The methylene chloride is then evaporated from the four plastic test tubes by passing a stream of dry air or nitrogen into the tubes or by a mild warming of the extract to about 37° C. The tubes containing dry cortisol residue as prepared above are then assayed as follows.
A set of plastic test tubes coated with rabbit anti-cortisol serum is numbered 1-12. The "S" and "E" tubes from the preparatory steps above are numbered 13-14 and 15-16, respectively. 0.01 ml of the reagents shown in Table 1 below are added to the designated tubes. The cortisol serum blank which is added to each "S" and "E" tube ensures that the protein content of all tubes is equal.
1.0 ml of ^125 I-Cortisol 3-(0-carboxymethyl)oxime-L-tyrosine in pH 7.0-7.2 phosphate buffered saline having an activity of about 0.033 μCi/ml is added to each tube with gentle mixing. All tubes are incubated in a constant temperature water bath for 45 minutes at 37° C. The contents are removed from the tubes by aspirating or decanting and the tubes counted in a gamma counter with the window suitably adjusted for iodine-125.

| Structure (SMILES) | % Binding [1] [%] | % Binding [2] [%] | % Binding [3] [%] | % Binding (estriol rabbit antiserum) [%] | other results |
| --- | --- | --- | --- | --- | --- |
| c1ccccc1 [Benzene, benzene] | 52 | 56 | 34 | – | – |
| CC(C)=O [Acetone, acetone] | 36 | 55 | 43 | – | – |
| C[C@]12CC[C@H]3[C@@H](CCC4=CC(=O)CC[C@@]43C)[C@@H]1CC[C@@H]2O [testosterone] | – | – | – | – | standard curve (bound radioactivity), in words (antitestosterone): virtually straight-line standard curve |
| CCOC(C)=O [Ethyl Acetate, ethyl acetate] | 41 | 54 | 38 | 62 | – |
| CCOCC [Ether, ether] | 41 | 55 | 33 | 38 | – |
| C[C@]12CCC(=O)C=C1CC[C@@H]1[C@@H]2[C@@H](O)C[C@@]2(C)[C@H]1CC[C@]2(O)C(=O)CO [Cortisol, cortisol] | – | – | – | – | CPM Bound ([4]; Cortisol Serum Standard, 1.0 μg%, 100 pg/0.01 ml, 45 minutes at 37° C.): 26,030 CPM and 25,305 CPM; CPM Bound ([4]; Cortisol Serum Standard, 3.0 μg%, 300 pg/0.01 ml, 45 minutes at 37° C.): 22,083 CPM and 21,629 CPM; CPM Bound ([4]; Cortisol Serum Standard, 10 μg%, 1000 pg/0.01 ml, 45 minutes at 37° C.): 14,520 CPM and 14,698 CPM; CPM Bound ([4]; Cortisol Serum Standard, 25 μg%, 2000 pg/0.01 ml, 45 minutes at 37° C.): 8,980 CPM and 9,071 CPM; CPM Bound ([4]; Cortisol Serum Standard, 60 μg%, 6000 pg/0.01 ml, 45 minutes at 37° C.): 4,824 CPM and 5,025 CPM; CPM Bound ([4]; urine extract "E" tubes 15-16 (cortisol-spiked), with Cortisol Serum Blank, 0 μg%): 8,009 CPM and 7,526 CPM; CPM Bound ([4]; urine extract "S" tubes 13-14, with Cortisol Serum Blank, 0 μg%): 14,325 CPM and 15,110 CPM |
